Results from US20230076646A1, “HERBICIDE COMBINATIONS COMPRISING GLUFOSINATE AND SULFENTRAZONE” (BASF SE, priority 2020, published 2023).

Legend:
Assay in all cases: Greenhouse post-emergence weed control, percent injury vs untreated control
Conditions in all cases: 504 h
[1] = test system: Amaranthus Palmerii (AMAPA); format: in vivo, Amaranthus palmeri
Procedure: (§1) Glufosinate was used as a commercial SL formulation containing 280 g ai/l of glufosinate (Liberty 280 SL, BASF). While the PPO herbicide Spartan containing 480 g ai/l sulfentrazone was used (Spartan 480 SC, FMC) formulation. • The evaluation for plant injury or damage caused by the chemical compositions was carried out using a scale from 0-100% when compared with the untreated control plants. Here, 0 means no damage and 100 means complete destruction of the plants.
(§2) 22., E=X+Y−(X*Y/100), where • X=effect in percent using herbicide A at an application rate of a; • Y=effect in percent using herbicide B at an application rate of b; • E=expected effect (in %) of A+B at application rates a+b.
(§3) The value E corresponds to the effect (plant damage or injury) which is to be expected if the activity of the individual compounds is just additive. If the observed effect is higher than the value E calculated according to Colby, a synergistic effect is present.
Seedlings of Palmer amaranth (Amaranthus palmeri; AMAPA), common waterhemp (Amaranthuis tameriscinus; AMATA), and barnyardgrass (Echinochloa crus-galli; ECHCG) were treated with postemergence applications of either glufosinate at 246 g ai/ha, sulfentrazone at 4.2 or 42 g ai/ha, or the combination of glufosinate (246 g ai/ha) and sulfentrazone (4.2, 42 g ai/ha), respectively, when they were 5-10 cm in height. […]

[2] = test system: Amaranthus tamariscinus (AMATA); format: in vivo
Procedure: as §1, §2, §3
(§4) Seedlings of Palmer amaranth (Amaranthus palmeri; AMAPA), common waterhemp (Amaranthuis tameriscinus; AMATA), and barnyardgrass (Echinochloa crus-galli; ECHCG) were treated with postemergence applications of either glufosinate at 246 g ai/ha, sulfentrazone at 4.2 or 42 g ai/ha, or the combination of glufosinate (246 g ai/ha) and sulfentrazone (4.2, 42 g ai/ha), respectively, when they were 5-10 cm in height. All glufosinate treatments contained 1% (w/v) ammonium sulfate and solo sulfentrazone treatments contained 1% (v/v) MSO surfactant. Plants were placed in a completely randomized design with four replications per treatment. Percent injury data was collected 21 days after treatment (DAT).

[3] = test system: Echinochloa crus-galli (ECHCG); format: in vivo
Procedure: as §1, §2, §3, §4

[4] = read-out: Solo Glufosinate (246 g ai/ha) % activity

Compound: Cc1nn(-c2cc(NS(C)(=O)=O)c(Cl)cc2Cl)c(=O)n1C(F)F [Sulfentrazone, sulfentrazone]
- inhibition at 4.2 g/ha ([1]; AMAPA, 4.2 g ai/ha, 1% (v/v) MSO, 21 DAT, 0 = no damage, 100 = complete destruction, read-out: Solo Sulfentrazone (4.2 g ai/ha) % activity): 20%
- inhibition at 42 g/ha ([2]; AMATA, 42 g ai/ha, 1% (v/v) MSO, 21 DAT, read-out: Solo Sulfentrazone (42 g ai/ha) % activity): 33%
- inhibition at 42 g/ha ([3]; ECHCG, 42 g ai/ha, 1% (v/v) MSO, 21 DAT, read-out: Solo Sulfentrazone (42 g ai/ha) % activity): 23%

Compound: CP(=O)(O)CCC(N)C(=O)O (racemic) [Glufosinate, (2RS)-2-amino-4-[hydroxy(methyl)phosphinoyl]butyric acid]
- inhibition at 246 g/ha [1, 4]: 79%
- inhibition at 246 g/ha [2, 4]: 79%
- inhibition at 246 g/ha [3, 4]: 57%
